Reference: patent publication US9745325B2, “Fused heterocyclic compound” (Takeda Pharmaceutical Company Limited, priority 2014, dated 2017)
One block for each compound: values may come before it.

How the values were obtained:
[1] = biological target: T1, CDK8/CycC (Homo sapiens, UniProt P49336); experiment: CDK8 inhibitory activity (Kinase Tracer-236 / Eu-anti-GST fluorescence assay); format: binding; parameters: Percent inhibition of CDK8 activity (%): concentration or dose not given beside the values; conditions: test compound concentration given as '1 1.1.1\4' [sic]
T1 construct: purchased Carna Biosciences
Method: (§1) The compound of the present invention was evaluated for its CDK8 inhibitory activity and CDK19 inhibitory activity by the following method. […] The primary diluted solution was dispensed in the amount of 2 μL/well to a 384-well plate, and then, a mixed solution of Eu^3+ Cryptate conjugated mouse monoclonal antibody anti-glutathione S-transferase (Cisbio) diluted 267-fold with an assay buffer and 60 nM Kinase Tracer-236 (Life technologies) was added thereto at 2 μL/well. […] After the addition, the plate was left standing at room temperature for 1 hour, and then, the fluorescence intensity (excitation wavelength 320 nm, fluorescence wavelength 615 nm, 665 nm, delay time 50 μsec) was measured using ann EnVision plate reader (PerkinElmer). The percent inhibition of CDK8 or CDK19 activity by the test compound can be calculated according to the following formula, wherein the fluorescence intensity of a reaction solution in the absence of compound is defined as the control, and the fluorescence intensity of a reaction solution in the presence of 10 μM of control compound is defined as the blank.

[2] = biological target: T2, CDC2L6/CycC (CDK19) (Homo sapiens, UniProt Q9BWU1); experiment: CDK19 inhibitory activity (Kinase Tracer-236 / Eu-anti-GST fluorescence assay); format: binding; parameters: Percent inhibition of CDK19 activity (%): concentration or dose not given beside the values; conditions: test compound concentration given as '1 1.1.1\4' [sic]
T2 construct: purchased Carna Biosciences Inc
Method: as §1

[3] = system: human multiple myeloma RPMI8226 cells; experiment: Inhibitory activity against human multiple myeloma RPMI8226 cell growth (CellTiter-Glo); format: cell-based; conditions: Homo sapiens, RPMI-8226, 192 h, 1 μM test compound, cultured for 8 days; read-out: Percent inhibition of RPMI8226 cell growth (%)
Method: The compound of the present invention was evaluated for its inhibitory activity against human multiple myeloma RPMI8226 cell growth by the following method.
A suspension of human multiple myeloma RPMI8226 cells (purchased from the Health Protection Agency) was inoculated at 40 μL (300 cells/well) to a 384-well plate and cultured at 37° C. for 1 day in a 5% CO2 incubator. After the culture, each test compound solution was added thereto at a test concentration of 1 μM using TECAN D300, and the cells were further cultured for 8 days. After the culture, CellTiter-Glo™ Luminescent Cell Viability Assay reagent (Promega) was added at 40 μL/well to a 384-well plate, and the amount of luminescence was measured using a luminometer. Inhibitory activity against human multiple myeloma RPMI8226 cell growth (percent inhibition (%)) of the test compound was calculated according to the following formula, which is based on the hypothesis that the amount of residual ATP reflects the number of cells. In this formula, 100% control represents the amount of luminescence from a well with only 0.1% DMSO added. Percent inhibition (%)=(1−(amount of luminescence of the test compound)÷(100% control))×100

T1 sequence (P49336 whole entry): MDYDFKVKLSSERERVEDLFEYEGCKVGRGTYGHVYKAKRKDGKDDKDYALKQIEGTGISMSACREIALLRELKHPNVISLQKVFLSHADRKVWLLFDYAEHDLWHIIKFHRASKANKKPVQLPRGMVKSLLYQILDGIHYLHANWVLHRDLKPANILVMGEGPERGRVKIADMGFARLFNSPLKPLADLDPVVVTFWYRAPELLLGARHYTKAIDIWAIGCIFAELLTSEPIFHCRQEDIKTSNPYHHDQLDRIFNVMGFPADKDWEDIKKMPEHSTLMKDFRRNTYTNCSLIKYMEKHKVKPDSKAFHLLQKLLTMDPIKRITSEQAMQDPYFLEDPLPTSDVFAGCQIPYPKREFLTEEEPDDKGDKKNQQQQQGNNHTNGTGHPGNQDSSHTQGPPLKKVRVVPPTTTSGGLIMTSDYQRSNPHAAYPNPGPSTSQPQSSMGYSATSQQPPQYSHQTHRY
T1 sequence (P24863 whole entry partner): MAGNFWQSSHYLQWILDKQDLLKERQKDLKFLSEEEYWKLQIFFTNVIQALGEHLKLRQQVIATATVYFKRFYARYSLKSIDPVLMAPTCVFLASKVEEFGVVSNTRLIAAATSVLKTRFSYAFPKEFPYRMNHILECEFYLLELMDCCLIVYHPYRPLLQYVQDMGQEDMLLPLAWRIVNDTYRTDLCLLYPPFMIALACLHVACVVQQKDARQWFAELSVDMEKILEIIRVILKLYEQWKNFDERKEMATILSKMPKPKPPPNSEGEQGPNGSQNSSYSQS
T2 sequence (Q9BWU1 whole entry): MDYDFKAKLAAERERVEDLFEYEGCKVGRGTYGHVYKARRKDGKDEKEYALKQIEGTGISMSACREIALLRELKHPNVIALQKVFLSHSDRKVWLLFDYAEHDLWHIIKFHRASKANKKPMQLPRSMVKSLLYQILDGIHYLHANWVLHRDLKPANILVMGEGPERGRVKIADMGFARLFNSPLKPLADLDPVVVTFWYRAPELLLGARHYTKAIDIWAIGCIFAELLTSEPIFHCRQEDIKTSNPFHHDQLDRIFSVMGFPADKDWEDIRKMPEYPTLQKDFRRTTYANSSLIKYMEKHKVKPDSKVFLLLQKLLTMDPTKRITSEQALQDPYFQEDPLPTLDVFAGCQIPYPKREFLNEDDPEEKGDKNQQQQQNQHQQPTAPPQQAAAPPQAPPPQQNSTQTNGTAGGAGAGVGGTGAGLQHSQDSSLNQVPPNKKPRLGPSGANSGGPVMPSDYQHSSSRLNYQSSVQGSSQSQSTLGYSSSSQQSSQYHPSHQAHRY
T2 sequence (P24863 whole entry partner): as the sequence (P24863 whole entry partner) above

Compound: NC(=O)c1sc(Oc2ccc(N)nc2)c2c1CCc1cnsc1-2 [Example 93, 8-((6-Aminopyridin-3-yl)oxy)-4,5-dihydrothieno[3,4-g][1,2]benzothiazole-6-carboxamide]
Percent inhibition of CDK8 activity (%) [1]: 87%
Percent inhibition of CDK19 activity (%) [2]: 96%
inhibition at 1 µM [3]: 63%

Compound: CCOCCOc1sc(C(N)=O)c2c1-c1sncc1CC2 [Example 95, 8-(2-Ethoxyethoxy)-4,5-dihydrothieno [3,4-g][1,2]benzothiazole-6-carboxamide]
Percent inhibition of CDK8 activity (%) [1]: 97%
Percent inhibition of CDK19 activity (%) [2]: 89%
inhibition at 1 µM [3]: 69%

Compound: Cn1cc(Oc2sc(C(N)=O)c3c2-c2sncc2CC3)cn1 [Example 96, 8-((1-Methyl-1H-pyrazol-4-yl)oxy)-4,5-dihydrothieno[3,4-g][1,2] benzothiazole-6-carboxamide]
Percent inhibition of CDK8 activity (%) [1]: 110%
Percent inhibition of CDK19 activity (%) [2]: 100%
inhibition at 1 µM [3]: 69%

Compound: NC(=O)c1sc(Oc2ccc(C(=O)N3CCCC3)nc2)c2c1CCc1cnsc1-2 [Example 102, 8-((6-(Pyrrolidin-1-ylcarbonyl)pyridin-3-yl)oxy)-4,5-dihydrothieno[3,4-g][1,2] benzothiazole-6-carboxamide]
Percent inhibition of CDK8 activity (%) [1]: 103%
Percent inhibition of CDK19 activity (%) [2]: 100%
inhibition at 1 µM [3]: 58%

Compound: N#Cc1cncc(Oc2sc(C(N)=O)c3c2-c2sncc2CC3)c1 [Example 103, 8-((5-Cyanopyridin-3-yl)oxy)-4,5-dihydrothieno[3,4-g][1,2]benzothiazole-6-carboxamide]
Percent inhibition of CDK8 activity (%) [1]: 103%
Percent inhibition of CDK19 activity (%) [2]: 95%
inhibition at 1 µM [3]: 52%

Compound: NC(=O)c1sc(Oc2ccc(C(=O)N3CCC3)nc2)c2c1CCc1cnsc1-2 [Example 104]
Percent inhibition of CDK8 activity (%) [1]: 101%
Percent inhibition of CDK19 activity (%) [2]: 102%
inhibition at 1 µM [3]: 66%

Compound: NC(=O)c1sc(Oc2ccc(C(=O)N3CCCCC3)nc2)c2c1CCc1cnsc1-2 [Example 106, 8-((6-(Piperidin-1-ylcarbonyl)pyridin-3-yl)oxy)-4,5-dihydrothieno[3,4-g][1,2] benzothiazole-6-carboxamide]
Percent inhibition of CDK8 activity (%) [1]: 97%
Percent inhibition of CDK19 activity (%) [2]: 95%
inhibition at 1 µM [3]: 58%

Compound: CN(C(=O)C1CC1)c1ccc(Oc2sc(C(N)=O)c3c2-c2sncc2CC3)cn1 [Example 108, 8-((6-((Cyclopropylcarbonyl)(methyl)amimo)pyridin-3-yl)oxy)-4,5-dihydrothieno[3,4-g][1,2]benzothiazole-6-carboxamide]
Percent inhibition of CDK8 activity (%) [1]: 101%
Percent inhibition of CDK19 activity (%) [2]: 99%
inhibition at 1 µM [3]: 63%

Compound: NC(=O)c1sc(Oc2ccc(C(=O)N3CC[C@@H](O)C3)nc2)c2c1CCc1cnsc1-2 [Example 109, 8-((6-(((3R)-3-Hydroxypyrrolidin-1-yl)carbonyl)pyridin-3-yl)oxy)-4,5-dihydrothieno[3,4-g][1,2]benzothiazole-6-carboxamide]
Percent inhibition of CDK8 activity (%) [1]: 105%
Percent inhibition of CDK19 activity (%) [2]: 98%
inhibition at 1 µM [3]: 63%

Compound: NC(=O)c1sc(Oc2ccc(C(=O)N3CC[C@H](O)C3)nc2)c2c1CCc1cnsc1-2 [Example 110, 8-((6-(((3S)-3-Hydroxypyrrolidin-1-yl)carbonyl)pyridin-3-yl)oxy)-4,5-dihydrothieno[3,4-g][1,2]benzothiazole-6-carboxamide]
Percent inhibition of CDK8 activity (%) [1]: 103%
Percent inhibition of CDK19 activity (%) [2]: 98%
inhibition at 1 µM [3]: 63%

Compound: CNC(=O)c1ccc(Oc2sc(C(N)=O)c3c2-c2sncc2CC3)c(C)n1 [Example 112, 8-((2-Methyl-6-(methylcarbamoyl)pyridin-3-yl)oxy)-4,5-dihydrothieno [3,4-g][1,2]benzothiazole-6-carboxamide]
Percent inhibition of CDK8 activity (%) [1]: 106%
Percent inhibition of CDK19 activity (%) [2]: 102%
inhibition at 1 µM [3]: 69%

Compound: COC1CN(C(=O)c2ccc(Oc3sc(C(N)=O)c4c3-c3sncc3CC4)c(C)n2)C1 [Example 113, 8-((6-((3-Methoxyazetidin-1-yl)carbonyl)-2-methylpyridin-3-yl)oxy)-4,5-dihydrothieno[3,4-g][1,2] benzothiazole-6-carboxamide]
Percent inhibition of CDK8 activity (%) [1]: 108%
Percent inhibition of CDK19 activity (%) [2]: 101%
inhibition at 1 µM [3]: 68%

Compound: Cc1nc(C(=O)N(C)C)ccc1Oc1sc(C(N)=O)c2c1-c1sncc1CC2 [Example 116, 8-((6-(Dimethylcarbamoyl)-2-methylpyridin-3-yl)oxy)-4,5-dihydrothieno[3,4-g][1,2]benzothiazole-6-carboxamide]
Percent inhibition of CDK8 activity (%) [1]: 103%
Percent inhibition of CDK19 activity (%) [2]: 99%
inhibition at 1 µM [3]: 61%

More lines, main results first:

Percent inhibition of CDK8 activity (%) [1]: 90%
Percent inhibition of CDK19 activity (%) [2]: 97%
Compound: CC(=O)Nc1ccc(Oc2sc(C(N)=O)c3c2-c2sncc2CC3)cn1 [Example 94, 8-((6-Acetamidopyridin-3-yl)oxy)-4,5-dihydrothieno[3,4-g][1,2]benzothiazole-6-carboxamide]
inhibition at 1 µM [3]: 63%

Percent inhibition of CDK8 activity (%) [1]: 103%
Percent inhibition of CDK19 activity (%) [2]: 99%
Compound: COCC(=O)Nc1ccc(Oc2sc(C(N)=O)c3c2-c2sncc2CC3)cn1 [Example 97, 8-((6-((Methoxyacetyl)amino)pyridin-3-yl)oxy)-4,5-dihydrothieno[3,4-g][1,2] benzothiazole-6-carboxamide]
inhibition at 1 µM [3]: 55%

Percent inhibition of CDK8 activity (%) [1]: 106%
Percent inhibition of CDK19 activity (%) [2]: 95%
Compound: COCCN(C)C(=O)c1ccc(Oc2sc(C(N)=O)c3c2-c2sncc2CC3)cn1 [Example 101, 8-((6-((2-Methoxyethyl)(methyl)carbamoyl)pyridin-3-yl)oxy)-4,5-dihydrothieno[3,4-g][1,2]benzothiazole-6-carboxamide]
inhibition at 1 µM [3]: 65%

Percent inhibition of CDK8 activity (%) [1]: 99%
Percent inhibition of CDK19 activity (%) [2]: 96%
Compound: CN(CCO)C(=O)c1ccc(Oc2sc(C(N)=O)c3c2-c2sncc2CC3)cn1 [Example 105]
inhibition at 1 µM [3]: 54%

Percent inhibition of CDK8 activity (%) [1]: 107%
Percent inhibition of CDK19 activity (%) [2]: 100%
Compound: COC1CN(C(=O)c2ccc(Oc3sc(C(N)=O)c4c3-c3sncc3CC4)cn2)C1 [Example 111, 8-((6-((3-Methoxyazetidin-1-yl)carbonyl)pyridin-3-yl)oxy)-4,5-dihydrothieno[3,4-g][1,2]benzothiazole-6-carboxamide]
inhibition at 1 µM [3]: 58%

Percent inhibition of CDK8 activity (%) [1]: 108%
Percent inhibition of CDK19 activity (%) [2]: 100%
Compound: CC(C)(O)CNC(=O)c1ccc(Oc2sc(C(N)=O)c3c2-c2sncc2CC3)cn1 [Example 114, 8-((6-((2-Hydroxy-2-methylpropyl)carbamoyl)pyridin-3-yl)oxy)-4,5-dihydrothieno[3,4-g][1,2]benzothiazole-6-carboxamide]
inhibition at 1 µM [3]: 65%

Percent inhibition of CDK8 activity (%) [1]: 100%
Percent inhibition of CDK19 activity (%) [2]: 95%
Compound: CN(CC(C)(C)O)C(=O)c1ccc(Oc2sc(C(N)=O)c3c2-c2sncc2CC3)cn1 [Example 115, 8-((6-((2-Hydroxy-2-methylpropyl) (methyl)carbamoyl)pyridin-3-yl)oxy)-4,5-dihydrothieno[3,4-g][1,2] benzothiazole-6-carboxamide]
inhibition at 1 µM [3]: 63%

Percent inhibition of CDK8 activity (%) [1]: 110%
Percent inhibition of CDK19 activity (%) [2]: 99%
Compound: CCOCCNC(=O)c1ccc(Oc2sc(C(N)=O)c3c2-c2sncc2CC3)cn1 [Example 117, 8-((6-((2-Ethoxyethyl)carbamoyl)pyridin-3-yl)oxy)-4,5-dihydrothieno [3,4-g][1,2]benzothiazole-6-carboxamide]
inhibition at 1 µM [3]: 64%
